Series [1] deals with T1, recombinant human transglutaminase 2 (Homo sapiens, UniProt P21980).
T1 construct: purchased Zedira T022
T1 sequence (P21980 1-687): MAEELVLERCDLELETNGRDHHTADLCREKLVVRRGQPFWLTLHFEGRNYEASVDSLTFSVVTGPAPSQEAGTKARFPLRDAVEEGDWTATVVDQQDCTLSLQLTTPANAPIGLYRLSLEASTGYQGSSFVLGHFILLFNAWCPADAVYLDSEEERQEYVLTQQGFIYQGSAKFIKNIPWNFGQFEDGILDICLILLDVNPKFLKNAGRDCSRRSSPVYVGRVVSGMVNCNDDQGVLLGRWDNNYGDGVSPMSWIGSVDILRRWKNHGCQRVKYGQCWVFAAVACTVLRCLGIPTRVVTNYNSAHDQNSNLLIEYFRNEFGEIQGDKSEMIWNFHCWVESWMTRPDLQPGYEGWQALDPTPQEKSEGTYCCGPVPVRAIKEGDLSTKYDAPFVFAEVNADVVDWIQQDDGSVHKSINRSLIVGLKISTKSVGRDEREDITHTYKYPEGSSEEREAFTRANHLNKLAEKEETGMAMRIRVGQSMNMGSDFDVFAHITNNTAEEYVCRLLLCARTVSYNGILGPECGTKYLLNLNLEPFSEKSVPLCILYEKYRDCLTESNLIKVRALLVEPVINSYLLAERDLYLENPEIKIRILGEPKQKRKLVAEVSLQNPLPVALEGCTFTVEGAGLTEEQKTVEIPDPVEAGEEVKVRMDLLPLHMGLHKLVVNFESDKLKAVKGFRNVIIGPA
Description: Transglutaminase assay (dansylcadaverine incorporation into dimethylcasein, DCC-assay). Type of series: biochemical. The settings on record: recombinant human TG2 10 nM, dansylcadaverine/dimethylcasein, 37° C. The gist of the method:
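IC50 derived from fluorescence slope between 20 and 30 min (λex 330 nm, λem 500 nm, 37 °C), expressed relative to a 2% DMSO control. Reaction: 10 nM recombinant human TG2, 4 μM dimethylcasein, 16.7 μM dansylcadaverine, 10 mM CaCl2 and glutathione, pH 8.0.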

Series [2] is described as follows: Log D shake flask method (octanol / PBS pH 7.4, HPLC). Type of series: physicochemical. Conditions: octanol/phosphate-buffered saline (PBS); octanol / PBS pH 7.4, shake flask. As to the method: In order to classify the inventive compounds according to their lipophilicity, Log D values (distribution coefficient) were determined by means of the well-established shake flask method, measuring the partition of a compound between an octanol and phosphate-buffered saline (PBS, pH 7.4) by HPLC.

Series [3] in a line: Caco-2 permeability assay (CacoReady kit). Type of series: in vitro ADME. The settings on record: human. The gist of the method: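 Caco-2 monolayer barrier, commercial ready-to-use kit, manufacturer protocol. Read-out: Papp.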
A general note: Caco-2 monolayers are a common model of the intestinal barrier.

Turning to `COC(=O)/C=C/CC[C@H](NC(=O)c1oc2ccccc2c1C)C(=O)Nc1cccn(CC(=O)N(C)C23CC4CC(CC(C4)C2)C3)c1=O` [III-47, (S,E)-methyl 7-(1-(2-(1-adamantyl(methyl)amino)-2-oxoethyl)-2-oxo-1,2-dihydropyridin-3-ylamino)-6-(3-methylbenzofuran-2-carboxamido)-7-oxohept-2-enoate], the IC50 in series [1] lay in the range of 250 to 1500 nM. This compound returned a pH-dependent lipophilicity (logD) in series [2] of 3 to 5. The same compound showed a Papp in series [3] of 1 to 10 ×10⁻⁶ cm/s.

Turning to `COC(=O)/C=C/CC[C@H](NC(=O)c1oc2ccccc2c1C)C(=O)Nc1cccn(CC(=O)NC2C3CC4CC2CC(O)(C4)C3)c1=O` (stereo partly drawn) [III-38, (S,E)-methyl 7-(1-(2-(5-hydroxyadamantan-2-amino)-2-oxoethyl)-2-oxo-1,2-dihydropyridin-3-ylamino)-6-(3-methylbenzofuran-2-carboxamido)-7-oxohept-2-enoate], in series [1], the IC50 lay within 25 to 250 nM. In series [2], this compound returned a logD of 1 to 3. Besides, the Papp in series [3] is under 1 ×10⁻⁶ cm/s.

As for `COC(=O)/C=C/CC[C@H](NC(=O)c1cc(Cl)sc1Cl)C(=O)Nc1cccn(CC(=O)N[C@@H]2C[C@H]3CC[C@@H]2C3)c1=O` [III-97, (S,E)-methyl 7-(1-(2-((1R,2R,4S)-bicyclo[2.2.1]heptan-2-ylamino)-2-oxoethyl)-2-oxo-1,2-dihydropyridin-3-ylamino)-6-(2,5-dichlorothiophene-3-carboxamido)-7-oxohept-2-enoate], the IC50 in series [1] is under 25 nM. In series [2], this compound had a logD of 3 to 5. The compound also showed a Papp in series [3] of 1 to 10 ×10⁻⁶ cm/s.

With `CC(C)NC(=O)/C=C/CC[C@H](NC(=O)c1c[nH]c2ccccc12)C(=O)Nc1cccn(CC(=O)NC23CC(C2)C3)c1=O` [III-140, (S,E)-N7-(1-(2-(bicyclo[1.1.1]pentan-1-ylamino)-2-oxoethyl)-2-oxo-1,2-dihydropyridin-3-yl)-6-(1H-indole-3-carboxamido)-N1-isopropylhept-2-enediamide], in series [1], the IC50 is 25 to 250 nM. For the same compound, in series [2], the logD was under 1. The compound further yielded a Papp in series [3] of 1 to 10 ×10⁻⁶ cm/s.

As to `COC(=O)/C=C/CC[C@H](NC(=O)c1c(C)noc1C)C(=O)Nc1cccn(CC(=O)NC2C3CCCC2CC3)c1=O` (stereo partly drawn) [III-135, (6S,E)-methyl 7-(1-(2-(bicyclo[3.2.1]octan-8-ylamino)-2-oxoethyl)-2-oxo-1,2-dihydropyridin-3-ylamino)-6-(3,5-dimethylisoxazole-4-carboxamido)-7-oxohept-2-enoate], the IC50 in series [1] lay in the range of 25 to 250 nM. The same compound came in with a logD in series [2] of 1 to 3. In addition, the Papp in series [3] lay within 1 to 10 ×10⁻⁶ cm/s.

For `CCCCCNC(=O)/C=C/CC[C@H](NC(=O)c1cn2ccsc2n1)C(=O)Nc1cccn(CC(=O)NC23CC(C2)C3)c1=O` [III-143, (S,E)-N7-(1-(2-(bicyclo[1.1.1]pentan-1-ylamino)-2-oxoethyl)-2-oxo-1,2-dihydropyridin-3-yl)-6-(imidazo[2,1-b]thiazole-6-carboxamido)-N1-pentylhept-2-enediamide], the IC50 in series [1] fell in the range of 250 to 1500 nM. In series [2], this compound yielded a logD of 1 to 3. The same compound registered a Papp in series [3] of 1 to 10 ×10⁻⁶ cm/s.

Regarding `COC(=O)/C=C/CC[C@H](NC(=O)c1oc2ccccc2c1C)C(=O)Nc1cccn(CC(=O)NC2CC3CCC2CC3)c1=O` (stereo partly drawn) [III-67, (6S,E)-methyl 7-(1-(2-(bicyclo[2.2.2]octan-2-ylamino)-2-oxoethyl)-2-oxo-1,2-dihydropyridin-3-ylamino)-6-(3-methylbenzofuran-2-carboxamido)-7-oxohept-2-enoate], the IC50 in series [1] is under 25 nM. In series [2], this compound showed a logD of 3 to 5. In addition, the Papp in series [3] is 1 to 10 ×10⁻⁶ cm/s.

Turning to `COC(=O)/C=C/CC[C@H](NC(=O)c1oc2ccccc2c1Cl)C(=O)Nc1cccn(CC(=O)NC2C3CC4CC(C3)CC2C4)c1=O` (stereo partly drawn) [III-3, (S,E)-methyl 6-(3-chlorobenzofuran-2-carboxamido)-7-(1-(2-(2-adamantylamino)-2-oxoethyl)-2-oxo-1,2-dihydropyridin-3-ylamino)-7-oxohept-2-enoate], in series [1], the IC50 is under 25 nM. This compound came in with a logD in series [2] of 3 to 5. For the same compound, the Papp in series [3] was in the range of 1 to 10 ×10⁻⁶ cm/s.

`COC(=O)/C=C/CC[C@H](NC(=O)c1nncs1)C(=O)Nc1cccn(CC(=O)NC23CC(C2)C3)c1=O` [III-171, (S,E)-methyl 7-(1-(2-(bicyclo[1.1.1]pentan-1-ylamino)-2-oxoethyl)-2-oxo-1,2-dihydropyridin-3-ylamino)-7-oxo-6-(1,3,4-thiadiazole-2-carboxamido)hept-2-enoate]: the IC50 in series [1] fell in the range of 25 to 250 nM. Besides, in series [2], the logD was under 1. The compound further came in with a Papp in series [3] of under 1 ×10⁻⁶ cm/s.

Turning to `CCC12CC3CC(C1)CC(NC(=O)Cn1cccc(NC(=O)[C@H](CC/C=C/C(=O)OC)NC(=O)c4oc5ccccc5c4C)c1=O)(C3)C2` [III-48, (S,E)-methyl 7-(1-(2-(3-ethyladamantan-1-amino)-2-oxoethyl)-2-oxo-1,2-dihydropyridin-3-ylamino)-6-(3-methylbenzofuran-2-carboxamido)-7-oxohept-2-enoate], the IC50 in series [1] was 25 to 250 nM. This compound also displayed a pH-dependent lipophilicity (logD) in series [2] of 3 to 5. The compound further showed an apparent permeability coefficient (Papp) in series [3] of 1 to 10 ×10⁻⁶ cm/s.

For `COC(=O)/C=C/CC[C@H](NC(=O)c1sc(Br)cc1Br)C(=O)Nc1cccn(CC(=O)NC2C3CC4CC(C3)CC2C4)c1=O` (stereo partly drawn) [III-15, (S,E)-methyl 6-(3,5-dibromothiophene-2-carboxamido)-7-(1-(2-(2-adamantylamino)-2-oxoethyl)-2-oxo-1,2-dihydropyridin-3-ylamino)-7-oxohept-2-enoate], the IC50 in series [1] was under 25 nM. In addition, the logD in series [2] fell in the range of 3 to 5. The Papp in series [3] was 1 to 10 ×10⁻⁶ cm/s.

On to `COC(=O)/C=C/CC[C@H](NC(=O)c1cnnn1C)C(=O)Nc1cccn(CC(=O)N[C@H]2C[C@H]3CC[C@]2(C)C3(C)C)c1=O` [III-121, (S,E)-methyl 6-(1-methyl-1H-1,2,3-triazole-5-carboxamido)-7-oxo-7-(2-oxo-1-(2-oxo-2-((1R,2S,4R)-1,7,7-trimethylbicyclo[2.2.1]heptan-2-ylamino)ethyl)-1,2-dihydropyridin-3-ylamino)hept-2-enoate], for which, in series [1], the IC50 was under 25 nM. This compound also had a logD in series [2] of 1 to 3. In series [3], the apparent permeability (Papp) is under 1 ×10⁻⁶ cm/s.

Regarding `COC(=O)/C=C/CC[C@H](NC(=O)[C@@H]1CCCCN1)C(=O)Nc1cccn(CC(=O)NC2C3CC4CC(C3)CC2C4)c1=O` (stereo partly drawn) [III-29, (S,E)-methyl 7-(1-(2-(2-adamantylamino)-2-oxoethyl)-2-oxo-1,2-dihydropyridin-3-ylamino)-7-oxo-6-((S)-piperidine-2-carboxamido)hept-2-enoate], in series [1], the IC50 was 25 to 250 nM. In series [2], this compound came in with a pH-dependent lipophilicity (logD) of 3 to 5. The Papp in series [3] was under 1 ×10⁻⁶ cm/s.

As for `COC(=O)/C=C/CC[C@H](NC(=O)c1snnc1C)C(=O)Nc1cccn(CC(=O)NC2C3CC4CC(C3)CC2C4)c1=O` (stereo partly drawn) [III-118, (S,E)-methyl 7-(1-(2-(2-adamantylamino)-2-oxoethyl)-2-oxo-1,2-dihydropyridin-3-ylamino)-6-(4-methyl-1,2,3-thiadiazole-5-carboxamido)-7-oxohept-2-enoate], the IC50 in series [1] was under 25 nM. In series [2], this compound gave a logD of 1 to 3. Moreover, in series [3], the Papp was under 1 ×10⁻⁶ cm/s.

For `COC(=O)/C=C/CC[C@H](NC(=O)c1oc2ccccc2c1C)C(=O)Nc1cccn(CC(=O)NC23CC4CC(C2)C(F)(F)C(C4)C3)c1=O` [III-55, (S,E)-methyl 7-(1-(2-(4,4-difluoroadamantan-1-amino)-2-oxoethyl)-2-oxo-1,2-dihydropyridin-3-ylamino)-6-(3-methylbenzofuran-2-carboxamido)-7-oxohept-2-enoate], the IC50 in series [1] lay in the range of 25 to 250 nM. The logD in series [2] lay within 3 to 5. Further, the Papp in series [3] was in the range of 1 to 10 ×10⁻⁶ cm/s.

In general, IC50 refers to the concentration that inhibits the measured activity by half. The term logD denotes the decadic logarithm of the distribution of all forms, ionised or not, between an organic phase and buffer at a given pH. In general, Papp refers to a coefficient for how fast a substance crosses the barrier. Read a low Papp as poor permeation.

For the origin of these results see patent US20240317708A1, “INHIBITORS OF TRANSGLUTAMINASES” (ZEDIRA GMBH, priority 2021, published 2024).
